Laboratory results published in PMC10987480, “Biological and mutational analyses of CXCR4–antagonist interactions and design of new antagonistic analogs” (Bioscience Reports, 2023).
Read-outs that look alike come from different tables or passages of the source. Positions of bridges follow the written chain, without caps; N, C: chain ends. Non-standard residues stand in square brackets, D forms with d. Residues, ends and D or L forms follow the SMILES beside them. 2Nal = N[C@@H](Cc1ccc2ccccc2c1)C(=O)O; d2Nal = N[C@H](Cc1ccc2ccccc2c1)C(=O)O; Cit = NC(=O)NCCC[C@H](N)C(=O)O

Assays:
CXCR4 [1] = target: T1, CXCR4 (Homo sapiens, UniProt P61073); test: Competitive CXCR4 binding assay (12G5 antibody probe), wild-type CXCR4 transfected CHO cells; set-up: expressed in transfected cells
Method: The CXCR4-specific antibody, 12G5 was used as a probe for the competitive CXCR4 binding assay to evaluate the binding activity of CXCR4 antagonists.
Figure 1 Competitive CXCR4 binding curves of eleven CXCR4 antagonists The CXCR4 transfected CHO cells were incubated with different concentrations of antagonists and 250 ng/ml 12G5 antibody. The CXCR4-binding 12G5 antibody was recognized by FITC-conjugated anti-IgG second antibody. The cells treated with only second antibody were used as a negative control (0%) while cells treated with both 12G5 antibody and second antibody were used as a positive control (100%). Cells treated with CXCR4 antagonists were calculated in percentage relative to the positive and negative controls. The data were averages of at least three independent experiments and shown as mean ± standard error of the mean (S.E.M.).
(§1) The procedure for the CXCR4 competitive binding experiments was published previously. Briefly, CXCR4 antibody 12G5 (250 ng/ml) was incubated with 5 × 10^5 cells and varying concentrations of unlabeled compounds in a final volume of 100 μl of assay buffer (PBS with 0.5% BSA and 0.05% NaN3) in 96-well plates for 40 min on ice, after being washed with assay buffer once. The cells were incubated with FITC-conjugated second antibody IgG for 30 min on ice, then washed with assay buffer three times. The fluorescence intensity was measured for excitation at 485 nm and emission at 535 nm using multimode plate reader (PerkinElmer). The IC50 values were calculated using graphpad Prism 7. Experiments were performed at least three times.

CXCR4 [2] = target: T1, CXCR4; test: SDF-1α-induced cell migration assay in SupT1 cells (transwell); assay type: cell-based; set-up: host or cells: SupT1 cells; conditions: 2 nM SDF-1α, 30 min pre-incubation, 3 h migration; for inhibition at 40 µM: SUP-T1, at 40 μM
Method: (§2) Figure 2 The inhibitory effect of the antagonists on SDF-1α-induced cell chemotaxis and calcium mobilization in SupT1 cells The antagonists and concentrations used were labeled in each lane. (A) The inhibition of cell migration by the noted antagonists. SupT1 cells pre-treated with or without CXCR4 antagonists were seeded in the upper well and cell migrated by 2 nM SDF-1α. Migrated cells without SDF-1α were used as a negative (0%) and migrated cell induced by SDF-1α as a positive control (100%). […] SupT1 cells were treated with or without CXCR4 antagonists and activated by 50 nM SDF-1α. To directly compare the inhibitory effect of the antagonists on calcium mobilization, the vehicle background and baseline were removed using GraphPad and Origin. The data were averages of at least three independent experiments.
SupT1 cells (2 × 10^6 cells per well in 75 μl) were collected and washed using assay buffer (RPMI 1640 supplemented with 0.5% BSA) and incubated with various concentrations of tested compounds for 30 min in the upper well of the transwell-96 well plates with 5.0 µm pore polycarbonate membrane insert (Corning, U.S.A.). Then, 200 μl assay buffer containing 2 nM SDF-1α was added to the lower well and cells were allowed to migrate for 3 h. Migrated cells were measured using celltiter-96 reagent.

CXCR4 [3] = target: T1, CXCR4; test: SDF-1α-induced calcium mobilization assay in SupT1 cells (Fluo-4); assay type: cell-based; set-up: host or cells: SupT1 cells; conditions: for inhibition at 10 µM: SUP-T1, at 10 μM, 50 nM SDF-1α, read-out: Inhibition of the calcium signal
Method: as §2
SupT1 cells were collected and washed using HHBS buffer (Hanks’ Balanced Salt solution supplemented with 20 mM HEPES) and incubated with 1 mM probenecid (Energy Chemical, China) and 4 μM Fluo-4 (AAT bioquest, U.S.A.) for 37°C for 30 min with vortex every 5 min. After being washed with HHBS, cells were suspended in PBS at 2 × 10^6/ml and seeded 200 μl cells and various concentrations of compounds per well in 96-well plate. Following 50 nM SDF-1α was added to each well, the fluorescence intensity was measured (Ex/Em = 496/516 nm) using EnSpire® multimode plate reader (PerkinElmer, U.S.A.).

CXCR4 [4] = target: T1, CXCR4; test: CXCR4-mediated internalization assay, CHO cells expressing CXCR4-EGFP (confocal); assay type: cell-based; set-up: expressed in transfected cells; conditions: at 100 and 10 μM; SDF-1α-induced
Method: Figure 3 The inhibitory effect of the antagonists on CXCR4 internalization CHO cells expressed CXCR4-EGFP conjugates were seeded in 96-well plate with glass bottom. Untreated cells were used as a control. Cells were pre-treated with or without CXCR4 antagonists and internalized with 50 nM SDF-1α (scale bar: 5 μm). The concentrations of the antagonists used were the same as those for the calcium mobilization assay shown above. The data shown were representative of three independent experiments.
CXCR4 and EGFP were amplified using a primer shown in Supplementary Table S1. The pcDNA3 vector was digested by restriction-enzyme EcoR1 and Apa1. CXCR4 was digested by restriction-enzyme EcoR1 and Xba1. EGFP was digested by restriction-enzyme Xba1 and Apa1. CXCR4–EGFP conjugate was constructed by ligation of three DNA fragments using T4 ligase. The vector containing CXCR4 ligated EGFP at the C-terminus was transfected and expressed in CHO cells in 100 μl DMEM medium supplemented with 2% FBS at 1 × 10^5/ml which was seeded in 96-well black plate glass bottom and incubated at 37°C overnight. Following incubation with tested compounds for 10 min, 50 nM of SDF-1α was added to each well and the internalized CXCR4 was observed using a confocal microscopy (Zeiss LSM880).

CXCR4 mutants = test: Mutational analysis of HM70116 binding to CXCR4 mutants compared with DV3; conditions: mutants F87A, W94A, Y116A, T117A, D171A, W195A, Y255A, D262N, H281A; three independent experiments with duplicate values
Source text: Figure 10 The mutational analysis and molecular modeling of HM70116 interaction with CXCR4 (A) Mutational analysis of HM70116 interaction with CXCR4 binding pocket. The data was averaged from three independent experiments with duplicate values. The data were shown as mean ± standard error of the mean (S.E.M.). (B) MD simulation of HM70116-CXCR4 complex. (C) Binding mode of the N-terminus of vMIP-II in the CXCR4-binding pocket.
as §1

X4-tropic HIV = conditions: read-out: IC50, block of X4-tropic HIV infection via CXCR4; cited from earlier work
Source text: (§3) To understand the receptor–ligand recognition mechanism involving CXCR4 and its antagonists, here in this study we conducted a series of comparative analyses of the biological activities and CXCR4 binding sites of eleven known CXCR4 antagonists, including the three mentioned above, using cell-based bioassays, CXCR4 site-directed mutagenesis and computer-aided molecular modeling. These antagonists studied here were chosen from different representative structural types including both D-peptides (i.e., HC4319, DV1, DV1 dimer, and DV3) and a representative counterpart L-peptide (i.e., V1) derived ...

CXCR4 [5] = conditions: read-out: Competitive binding IC50; cited from earlier work
Source text: as §3

[6] = CXCR4 transfected CHO cells, 250 ng/ml 12G5, 40 min on ice, FITC second antibody, mean ± S.E.M. of at least three independent experiments, SEM, read-out: IC50 (nM), inhibition of 12G5 binding to CXCR4

T1 sequence (P61073 whole entry): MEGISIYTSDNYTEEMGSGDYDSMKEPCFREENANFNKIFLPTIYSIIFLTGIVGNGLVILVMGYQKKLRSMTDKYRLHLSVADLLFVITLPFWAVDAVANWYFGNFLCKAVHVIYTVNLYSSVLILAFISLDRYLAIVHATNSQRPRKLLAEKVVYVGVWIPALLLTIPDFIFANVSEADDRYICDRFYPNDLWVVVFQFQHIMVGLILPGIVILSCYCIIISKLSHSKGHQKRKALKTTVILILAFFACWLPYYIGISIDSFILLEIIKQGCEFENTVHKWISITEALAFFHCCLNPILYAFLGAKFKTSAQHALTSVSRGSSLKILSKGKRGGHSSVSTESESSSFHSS

Which IC50 (CXCR4 [1]; [6]) does the source give for N=C(N)NCCC[C@H](NC(=O)[C@@H]1CSSC[C@H](NC(=O)[C@H](Cc2ccc3ccccc3c2)NC(=O)[C@H](CCCNC(=N)N)NC(=O)[C@@H](N)CCCNC(=N)N)C(=O)N[C@@H](Cc2ccc(O)cc2)C(=O)N[C@@H](CCC(N)=O)C(=O)N[C@@H](CCCCN)C(=O)N2CCC[C@@H]2C(=O)N2CCC[C@H]2C(=O)N[C@@H](Cc2ccc(O)cc2)C(=O)N[C@@H](CCCNC(=N)N)C(=O)N[C@@H](CCCNC(N)=O)C(=O)N1)C(=O)NCC(=O)N1CCC[C@@H]1C(=O)O [CVX15] (H-RR[2Nal]CYQK[dP]PYR[Cit]CRG[dP]-OH; disulfide 4-13) here?
Its IC50 is 7.8 ± 2.2 nM.

And the inhibition at 0.02 µM (CXCR4 [2]; SUP-T1, at 20 nM)?
The inhibition at 0.02 µM was 65%.

Which results are given for CC(C)C[C@@H](N)C(=O)NCC(=O)N[C@H](C)C(=O)N[C@H](CO)C(=O)N[C@H](Cc1c[nH]c2ccccc12)C(=O)N[C@H](Cc1c[nH]cn1)C(=O)N[C@H](CCCNC(=N)N)C(=O)N1CCC[C@@H]1C(=O)N[C@H](CC(=O)O)C(=O)N[C@H](CCCCN)C(=O)N[C@H](CS)C(=O)N[C@H](CS)C(=O)N[C@H](CC(C)C)C(=O)NCC(=O)N[C@H](Cc1ccc(O)cc1)C(=O)N[C@H](CCC(N)=O)C(=O)N[C@H](CCCCN)C(=O)N[C@H](CCCNC(=N)N)C(=O)N1CCC[C@@H]1C(=O)N[C@H](CC(C)C)C(=O)N1CCC[C@@H]1C(N)=O [DV1] (H-[dL]G[dA][dS][dW][dH][dR][dP][dD][dK][dC][dC][dL]G[dY][dQ][dK][dR][dP][dL][dP]-NH2)?
inhibition at 40 µM (CXCR4 [2]): 78%; inhibition at 10 µM (CXCR4 [3]): 86%

What does the source list for CC(C)C[C@@H](N)C(=O)NCC(=O)N[C@H](C)C(=O)N[C@H](CO)C(=O)N[C@H](Cc1c[nH]c2ccccc12)C(=O)N[C@H](Cc1c[nH]cn1)C(=O)N[C@H](CCCNC(=N)N)C(=O)N1CCC[C@@H]1C(=O)N[C@H](CC(=O)O)C(=O)N[C@H](CCCCN)C(=O)O [DV3] (H-[dL]G[dA][dS][dW][dH][dR][dP][dD][dK]-OH)?
inhibition at 40 µM (CXCR4 [2]): 13%; inhibition at 10 µM (CXCR4 [3]): ~55%

With CC(C)C[C@@H](N)C(=O)NCC(=O)N[C@H](C)C(=O)N[C@H](CO)C(=O)N[C@H](Cc1c[nH]c2ccccc12)C(=O)N[C@H](Cc1c[nH]cn1)C(=O)N[C@H](CCCNC(=N)N)C(=O)N1CCC[C@@H]1C(=O)N[C@H](CC(=O)O)C(=O)N[C@H](CCCCN)C(=O)N[C@H](CCCNC(=N)N)C(=O)N[C@H](CCCNC(=N)N)C(=O)O [HM12] (H-[dL]G[dA][dS][dW][dH][dR][dP][dD][dK][dR][dR]-OH) as the compound, how does the IC50 (CXCR4 [1]; SEM) read?
The IC50 was 544 ± 75 nM.

With CC(C)C[C@@H](NC(=O)[C@@H](CCCNC(=N)N)NC(=O)[C@H](N)CCCCN)C(=O)NCC(=O)N[C@H](C)C(=O)N[C@H](CO)C(=O)N[C@H](Cc1c[nH]c2ccccc12)C(=O)N[C@H](Cc1c[nH]cn1)C(=O)N[C@H](CCCNC(=N)N)C(=O)N1CCC[C@@H]1C(=O)N[C@H](CC(=O)O)C(=O)N[C@H](CCCCN)C(=O)O [HM60303] (H-[dK][dR][dL]G[dA][dS][dW][dH][dR][dP][dD][dK]-OH; N-terminus and C-terminus assumed) as the compound, how does the IC50 (CXCR4 [1]) read?
Its IC50 is over 50000 nM.

For CC(C)C[C@@H](N)C(=O)NCC(=O)N[C@H](C)C(=O)N[C@H](CO)C(=O)N[C@H](Cc1c[nH]c2ccccc12)C(=O)N[C@H](Cc1c[nH]cn1)C(=O)N[C@H](CCCNC(=N)N)C(=O)N1CCC[C@@H]1C(=O)N[C@H](CC(=O)O)C(=O)N[C@H](CCCCN)C(=O)N[C@H](CCCNC(=N)N)C(=O)O [HM60323] (H-[dL]G[dA][dS][dW][dH][dR][dP][dD][dK][dR]-OH), which IC50 (CXCR4 [1]; SEM) is on record?
Its IC50 is 707 ± 143 nM.

With CC(C)C[C@@H](N)C(=O)NCC(=O)N[C@H](C)C(=O)N[C@H](CO)C(=O)N[C@H](Cc1c[nH]c2ccccc12)C(=O)N[C@H](Cc1c[nH]cn1)C(=O)N[C@H](CCCNC(=N)N)C(=O)N1CCC[C@@H]1C(=O)N[C@H](Cc1ccc2ccccc2c1)C(=O)N[C@H](CCCNC(=N)N)C(=O)N[C@H](CCCNC(=N)N)C(=O)O [HM70116] (H-[dL]G[dA][dS][dW][dH][dR][dP][d2Nal][dR][dR]-OH; N-terminus and C-terminus assumed) as the compound, how does the “Inhibition of CXCR4 internalization (in words)” value (CXCR4 [4]) read?
Its value is “effectively prevented CXCR4 internalization”.

What about the “Reduction in binding to CXCR4 mutants relative to DV3 (in words)” value (CXCR4 mutants) of the same compound?
Its value is “greater than DV3”.

What about the “Inhibition of intracellular calcium mobilization (in words)” value (CXCR4 [3]; 1 μM pretreatment, SDF-1α-induced) of the same compound?
Its value is “potently inhibited”.

What does the source list for CC1(C)CN2C(CSC(=NC3CCCCC3)NC3CCCCC3)=CSC2=N1 [IT1t]?
IC50 (X4-tropic HIV): 7 nM; IC50 (CXCR4 [5]): […]

What does the source list for CC(C)C[C@H](NC(=O)[C@H](CS)NC(=O)[C@H](CS)NC(=O)[C@H](CCCCN)NC(=O)[C@H](CC(=O)O)NC(=O)[C@@H]1CCCN1C(=O)[C@H](CCCNC(=N)N)NC(=O)[C@H](Cc1c[nH]cn1)NC(=O)[C@H](Cc1c[nH]c2ccccc12)NC(=O)[C@H](CO)NC(=O)[C@H](C)NC(=O)CNC(=O)[C@@H](N)CC(C)C)C(=O)NCC(=O)N[C@@H](Cc1ccc(O)cc1)C(=O)N[C@@H](CCC(N)=O)C(=O)N[C@@H](CCCCN)C(=O)N[C@@H](CCCNC(=N)N)C(=O)N1CCC[C@H]1C(=O)N[C@@H](CC(C)C)C(=O)N1CCC[C@H]1C(=O)O [V1] (H-LGASWHRPDKCCLGYQKRPLP-OH)?
IC50 (CXCR4 [1]; [6]): 2630 ± 891 nM; inhibition at 40 µM (CXCR4 [2]): 68%
